Results on 21 molecules are retold here after patent publication US7741488B2, “Tetrahydropyridothiophenes as antiproliferative agents for the treatment of cancer” (4SC AG, priority 2005, dated 2010).

By IC50 is commonly meant the point on the concentration scale where inhibition reaches its midpoint. A high value points to a need for much substance.

Test [1] deals with RKOp27 colon adenocarcinoma cells arrested by expression of ectopic p27Kip1. Description: Alamar Blue cell viability assay on RKO p27 cells arrested by Ponasterone A induced p27Kip1 (cell cycle specific mode of action). In kind it is cell-based. Conditions: Homo sapiens, 72 hours, cells arrested by p27Kip1 induced with 10 μM Ponasterone A. As to the method:
To determine the cell cycle specific mode of action, subclones of RKO colon adenocarcinoma cells (RKOp27 or RKOp21 as described by Schmidt et al. in Oncogene 19, 2423-2429; 2000) are seeded into 96 well flat bottom plates at a density of 16000 cells per well in a volume of 50 μl per well in DMEM growth medium with 10% FCS containing 10 μM Ponasterone A. 24 hours after seeding the 50 μl each of the compound dilutions in DMEM medium are added into each well of the 96 Well plate. Each compound dilution is tested as quadruplicates. Wells containing untreated control cells are filled with 50 μl DMEM medium containing 1% DMSO. The cells are then incubated with the substances for 72 hours at 37° C. in a humidified atmosphere containing 5% carbon dioxide. To determine the viability of the cells, 10 μl of an Alamar Blue solution (Biosource) are added and the fluorescence was measured at an extinction of 544 nm and an emission of 590 nm. For the calculation of the cell viability the emission value from untreated cells is set as 100% viability and the emission rates of treated cells are set in relation to the values of untreated cells. Viabilities are expressed as % values. Viability is compared of proliferating cells grown in the absence of the inducer Ponasterone A, versus viability of cells arrested by the expression of ectopic p27Kip1 induced by Ponasterone A.

In test [2] the test system is RKO (RKOp27) human colon adenocarcinoma cells. In words: Alamar Blue cell viability assay, anti-proliferative/cytotoxic activity on proliferating (uninduced) RKO p27 cells. In kind it is cell-based. Conditions: RKOp27, 72 h, proliferating cells without inducer Ponasterone A. As to the method: The anti-proliferative/cytotoxic activity of the compounds described herein, can be tested on subclones of RKO (RKOp27) human colon adenocarcinoma cells (Schmidt et al., Oncogene 19, 2423-2429; 2000) using the Alamar Blue cell viability assay (described in O'Brien et al. Eur J Biochem 267, 5421-5426, 2000). The compounds are dissolved as 20 mM solutions in dimethylsulfoxide (DMSO) and subsequently diluted in semi-logarithmic steps. DMSO dilutions are further diluted 1:100 into Dulbecco's modified Eagle's medium (DMEM) containing 10% fetal calf serum to a final concentration twice as much as the final concentration in the test. RKO subclones are seeded into 96 well flat bottom plates at a density of 4000 cells per well in a volume of 50 μl per well. 24 hours after seeding the 50 μl each of the compound dilutions in DMEM medium are added into each well of the 96 Well plate. Each compound dilution is tested as quadruplicates. Wells containing untreated control cells are filled with 50 μl DMEM medium containing 1% DMSO. The cells are then incubated with the substances for 72 hours at 37° C. in a humidified atmosphere containing 5% carbon dioxide. To determine the viability of the cells, 10 μl of an Alamar Blue solution (Biosource) are added and the fluorescence is measured at an extinction of 544 nm and an emission of 590 nm. For the calculation of the cell viability the emission value from untreated cells is set as 100% viability and the emission rates of treated cells are set in relation to the values of untreated cells. Viabilities are expressed as % values.
The corresponding IC50 values of the compounds for anti-proliferative/cytotoxic activity are determined from the concentration-effect curves.
Representative IC50 values for anti-proliferation/cytotoxicity determined in the mentioned assay follow from the following table A, in which the numbers of the compound correspond to the numbers of the examples.
(In general: Resazurin is reduced to fluorescent resorufin, in cell work by metabolically active cells.)

For the molecule `COc1ccc(C)cc1CCC(=O)Nc1sc2c(c1C#N)CCN(C(=O)OCc1cccnc1)C2` [Example 51, 3-Cyano-2-[3-(2-methoxy-5-methyl-phenyl)-propanoylamino]-4,7-dihydro-5H-thieno[2,3-c]pyridine-6-carboxylic acid pyridin-3-ylmethyl ester], the IC50 in test [1] was more than 100000 nM; in test [2], not above 300 nM.

As for `COc1cccc(CCC(=O)Nc2sc3c(c2C#N)CCN(C(=O)OCCc2ccncc2)C3)c1` [Example 64, 3-Cyano-2-[3-(3-methoxy-phenyl)-propanoylamino]-4,7-dihydro-5H-thieno[2,3-c]pyridine-6-carboxylic acid 2-pyridin-4-yl-ethyl ester], the IC50 was more than 100000 nM in test [1] and not above 300 nM in test [2].

Turning to `COc1ccccc1CCC(=O)Nc1sc2c(c1C#N)CCN(C(=O)OCc1ccccn1)C2` [Example 26, 3-Cyano-2-[3-(2-methoxy-phenyl)-propanoylamino]-4,7-dihydro-5H-thieno[2,3-c]pyridine-6-carboxylic acid pyridin-2-ylmethyl ester], the values for the IC50 in test [1] and in test [2] were not below 40000 nM and not above 300 nM, respectively.

In the case of `COc1ccccc1CCC(=O)Nc1sc2c(c1C#N)CCN(C(=O)OCCc1cccnc1)C2` [Example 61, 3-Cyano-2-[3-(2-methoxy-phenyl)-propanoylamino]-4,7-dihydro-5H-thieno[2,3-c]pyridine-6-carboxylic acid 2-pyridin-3-yl-ethyl ester], the IC50 in test [1] is more than 100000 nM; in test [2], not above 300 nM.

Turning to `CCOc1ccccc1CCC(=O)Nc1sc2c(c1C#N)CCN(C(=O)OCc1ccccn1)C2` [Example 41, 3-Cyano-2-[3-(2-ethoxy-phenyl)-propanoylamino]-4,7-dihydro-5H-thieno[2,3-c]pyridine-6-carboxylic acid pyridin-2-ylmethyl ester], the IC50 in test [1] was more than 100000 nM; in test [2] it was not above 300 nM.

Regarding `CCOC(=O)N1CCc2c(sc(NC(=O)CCc3ccccc3OC(F)F)c2C#N)C1` [Example 12, 3-Cyano-2-{3-[2-(1,1-difluoro-methoxy)-phenyl]-propanoylamino}-4,7-dihydro-5H-thieno[2,3-c]pyridine-6-carboxylic acid ethyl ester], the IC50 in test [1] was more than 100000 nM; in test [2], not above 300 nM.

Consider `CCOC(=O)N1CCc2c(sc(NC(=O)CCc3ccccc3OC(F)(F)F)c2C#N)C1` [Example 39, 3-Cyano-2-[3-(2-trifluoromethoxy-phenyl)-propanoylamino]-4,7-dihydro-5H-thieno[2,3-c]pyridine-6-carboxylic acid ethyl ester], for which the IC50 in test [1] was more than 100000 nM; in test [2], not above 300 nM.

`CCOc1ccccc1CCC(=O)Nc1sc2c(c1C#N)CCN(C(=O)OCCOC)C2` [Example 40, 3-Cyano-2-[3-(2-ethoxy-phenyl)-propanoylamino]-4,7-dihydro-5H-thieno[2,3-c]pyridine-6-carboxylic acid 2-methoxy-ethyl ester]: the values for the IC50 in test [1] and in test [2] were more than 100000 nM and not above 300 nM, respectively.

Regarding `COc1cccc(CCC(=O)Nc2sc3c(c2C#N)CCN(C(=O)OCCn2ccnc2)C3)c1` [Example 58, 3-Cyano-2-[3-(3-methoxy-phenyl)-propanoylamino]-4,7-dihydro-5H-thieno[2,3-c]pyridine-6-carboxylic acid 2-imidazol-1-yl-ethyl ester], the IC50 in test [1] was more than 100000 nM; in test [2] it was 300 to 2000 nM.

Take `COc1ccc(C)cc1CCC(=O)Nc1sc2c(c1C#N)CCN(C(=O)OCC(=O)O)C2` [Example 155, 3-Cyano-2-[3-(2-methoxy-5-methyl-phenyl)-propanoylamino]-4,7-dihydro-5H-thieno[2,3-c]pyridine-6-carboxylic acid carboxymethyl ester]: the IC50 in test [1] was more than 100000 nM; in test [2], 300 to 2000 nM.

Take `CCOc1ccccc1CCC(=O)Nc1sc2c(c1C#N)CCN(C(=O)OCCO)C2` [Example 35, 3-Cyano-2-[3-(2-ethoxy-phenyl)-propanoylamino]-4,7-dihydro-5H-thieno[2,3-c]pyridine-6-carboxylic acid 2-hydroxy-ethyl ester]: the figures for the IC50 in test [1] and in test [2] were more than 100000 nM and not above 300 nM, respectively.

`COc1ccccc1CCC(=O)Nc1sc2c(c1C#N)CCN(C(=O)OCC(O)CO)C2` (stereo not drawn) [Example 32, 3-Cyano-2-[3-(2-methoxy-phenyl)-propanoylamino]-4,7-dihydro-5H-thieno[2,3-c]pyridine-6-carboxylic acid 2,3-dihydroxy-propyl ester]: the figures for the IC50 in test [1] and in test [2] were more than 100000 nM and not above 300 nM, respectively.

On to `COc1ccccc1CCC(=O)Nc1sc2c(c1C#N)CCN(C(=O)OCCO)C2` [Example 34, 3-Cyano-2-[3-(2-methoxy-phenyl)-propanoylamino]-4,7-dihydro-5H-thieno[2,3-c]pyridine-6-carboxylic acid 2-hydroxy-ethyl ester], for which the IC50 in test [1] was more than 100000 nM; in test [2], not above 300 nM.

As for `COc1cccc(CCC(=O)Nc2sc3c(c2C#N)CCN(C(=O)OCc2ccccn2)C3)c1` [Example 29, 3-Cyano-2-[3-(3-methoxy-phenyl)-propanoylamino]-4,7-dihydro-5H-thieno[2,3-c]pyridine-6-carboxylic acid pyridin-2-ylmethyl ester], the IC50 is more than 100000 nM in test [1] and not above 300 nM in test [2].

For the molecule `COc1ccc(C)cc1CCC(=O)Nc1sc2c(c1C#N)CCN(C(=O)OCc1cnccc1OC)C2` [Example 57, 3-Cyano-2-[3-(2-methoxy-5-methyl-phenyl)-propanoylamino]-4,7-dihydro-5H-thieno[2,3-c]pyridine-6-carboxylic acid 4-methoxy-pyridin-3-ylmethyl ester], the IC50 in test [1] is not below 40000 nM; in test [2], 300 to 2000 nM.

Turning to `COc1ccc(C)cc1CCC(=O)Nc1sc2c(c1C#N)CCN(C(=O)OCc1cncn1C)C2` [Example 130, 3-Cyano-2-[3-(2-methoxy-5-methyl-phenyl)-propanoylamino]-4,7-dihydro-5H-thieno[2,3-c]pyridine-6-carboxylic acid 3-methyl-3H-imidazol-4-ylmethyl ester], the IC50 in test [1] is not below 10000 nM; in test [2], 300 to 2000 nM.

Regarding `COc1cccc(CCC(=O)Nc2sc3c(c2C#N)CCN(C(=O)OCc2cccnc2)C3)c1` [Example 36, 3-Cyano-2-[3-(3-methoxy-phenyl)-propanoylamino]-4,7-dihydro-5H-thieno[2,3-c]pyridine-6-carboxylic acid pyridin-3-ylmethyl ester], the values for the IC50 in test [1] and in test [2] were more than 100000 nM and not above 300 nM, respectively.

Take `COc1cccc(CCC(=O)Nc2sc3c(c2C#N)CCN(C(=O)OCCn2cnc(C)c2)C3)c1` [Example 142, 3-Cyano-2-[3-(3-methoxy-phenyl)-propanoylamino]-4,7-dihydro-5H-thieno[2,3-c]pyridine-6-carboxylic acid 2-(4-methyl-imidazol-1-yl)-ethyl ester]: the IC50 in test [1] is more than 100000 nM; in test [2], not above 300 nM.

Regarding `CCOc1ccccc1CCC(=O)Nc1sc2c(c1C#N)CCN(C(=O)OCCc1ccccn1)C2` [Example 44, 3-Cyano-2-[3-(2-ethoxy-phenyl)-propanoylamino]-4,7-dihydro-5H-thieno[2,3-c]pyridine-6-carboxylic acid 2-pyridin-2-yl-ethyl ester], the IC50 was more than 100000 nM in test [1] and not above 300 nM in test [2].

Turning to `CCOC(=O)N1CCc2c(sc(NC(=O)CCc3c(OC)ccc4c3OC(F)(F)C(F)(F)O4)c2C#N)C1` [Example 18, 3-Cyano-2-[3-(2,2,3,3-tetrafluoro-6-methoxy-2,3-dihydro-benzo[1,4]dioxin-5-yl)-propanoylamino]-4,7-dihydro-5H-thieno[2,3-c]pyridine-6-carboxylic acid ethyl ester], the half-inhibitory concentration (IC50) was more than 100000 nM in test [1] and 300 to 2000 nM in test [2].

For `COc1ccccc1CCC(=O)Nc1sc2c(c1C#N)CCN(C(=O)OCc1cncn1C)C2` [Example 123, 3-Cyano-2-[3-(2-methoxy-phenyl)-propanoylamino]-4,7-dihydro-5H-thieno[2,3-c]pyridine-6-carboxylic acid 3-methyl-3H-imidazol-4-ylmethyl ester], the results for the IC50 in test [1] and in test [2] were more than 100000 nM and not above 300 nM, respectively.
